Assay results published in patent US10259810B2, “N-sulfonylated pyrazolo[3,4-b]pyridin-6-carboxamides and method of use” (AbbVie S.à.r.l., priority 2015, dated 2019).

Experiments:
Type in all cases: cell-based
[1] = target: T1, ΔF508-CFTR (Homo sapiens, UniProt P13569, DEL508-508); experiment: CFTR cell surface levels using HRP-tagged ΔF508-CFTR expressing CFBE cells, intrinsic corrector capacity; design: % Activation: concentration or dose not given beside the values; details: HRP-tagged ΔF508-CFTR expressing CFBE41o- cells, compound alone (intrinsic corrector capacity), 20 hours at 33° C.; for EC50: read-out: EC50
T1 construct: host or cells: CFBE41o-, doxycycline-inducible
Summary of the method: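 Surface ΔF508-CFTR was measured as HRP chemiluminescence from an extracellular-loop-4 tag, expressed as percent activity between DMSO and a […] corrector control.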

[2] = target: T2, CFTR ΔF508 (Homo sapiens, UniProt P13569, DEL508-508); experiment: Chronic TECC assay, primary bronchial epithelial cells of CF patients homozygous for CFTR ΔF508 (corrector, co-corrector and potentiator); details: chronic TECC, AUC = full area under the curve upon forskolin stimulation; for EC50: read-out: EC50 (nM) (AUC**); for % Activity at 1 μM (AUC**): test compound at 1 μM; for % Activity at 3 μM (AUC**): test compound at 3 μM
T2 construct: bronchial epithelial cells isolated from CF patients homozygous for the CFTR ΔF508 mutation; McGill University; Asterand; University of North Carolina hAEC-CF; host or cells: primary human bronchial epithelial cells from CF patients homozygous for ΔF508, differentiated at air-liquid interface
Summary of the method: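 Primary bronchial epithelial cells from ΔF508-homozygous CF patients on collagen IV-coated Transwells were chronically treated with test compound plus corrector and potentiator, which were re-added before recording. Ieq was derived from PD and Rt in NaCl-Ringer, pH 7.4, at 37° C, with apical amiloride and bilateral forskolin, recorded every 2 min over 20 min. Ieq increase was normalized to controls, and EC50 was taken from per-well concentrations.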

[3] = target: T1, ΔF508-CFTR; experiment: CFTR cell surface levels using HRP-tagged ΔF508-CFTR expressing CFBE cells, in the presence of a co-corrector; details: HRP-tagged ΔF508-CFTR CFBE cells, in the presence of 3 μM co-corrector; for EC50: read-out: EC50
Summary of the method: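 Chemiluminescent read-out of surface HRP (15 min, dark) after PBS washes. Activity is normalized as 100×(sample−DMSO)/(3 μM co-corrector alone−DMSO).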

T1 sequence (P13569 with tags, fused parts or gaps DEL508-508): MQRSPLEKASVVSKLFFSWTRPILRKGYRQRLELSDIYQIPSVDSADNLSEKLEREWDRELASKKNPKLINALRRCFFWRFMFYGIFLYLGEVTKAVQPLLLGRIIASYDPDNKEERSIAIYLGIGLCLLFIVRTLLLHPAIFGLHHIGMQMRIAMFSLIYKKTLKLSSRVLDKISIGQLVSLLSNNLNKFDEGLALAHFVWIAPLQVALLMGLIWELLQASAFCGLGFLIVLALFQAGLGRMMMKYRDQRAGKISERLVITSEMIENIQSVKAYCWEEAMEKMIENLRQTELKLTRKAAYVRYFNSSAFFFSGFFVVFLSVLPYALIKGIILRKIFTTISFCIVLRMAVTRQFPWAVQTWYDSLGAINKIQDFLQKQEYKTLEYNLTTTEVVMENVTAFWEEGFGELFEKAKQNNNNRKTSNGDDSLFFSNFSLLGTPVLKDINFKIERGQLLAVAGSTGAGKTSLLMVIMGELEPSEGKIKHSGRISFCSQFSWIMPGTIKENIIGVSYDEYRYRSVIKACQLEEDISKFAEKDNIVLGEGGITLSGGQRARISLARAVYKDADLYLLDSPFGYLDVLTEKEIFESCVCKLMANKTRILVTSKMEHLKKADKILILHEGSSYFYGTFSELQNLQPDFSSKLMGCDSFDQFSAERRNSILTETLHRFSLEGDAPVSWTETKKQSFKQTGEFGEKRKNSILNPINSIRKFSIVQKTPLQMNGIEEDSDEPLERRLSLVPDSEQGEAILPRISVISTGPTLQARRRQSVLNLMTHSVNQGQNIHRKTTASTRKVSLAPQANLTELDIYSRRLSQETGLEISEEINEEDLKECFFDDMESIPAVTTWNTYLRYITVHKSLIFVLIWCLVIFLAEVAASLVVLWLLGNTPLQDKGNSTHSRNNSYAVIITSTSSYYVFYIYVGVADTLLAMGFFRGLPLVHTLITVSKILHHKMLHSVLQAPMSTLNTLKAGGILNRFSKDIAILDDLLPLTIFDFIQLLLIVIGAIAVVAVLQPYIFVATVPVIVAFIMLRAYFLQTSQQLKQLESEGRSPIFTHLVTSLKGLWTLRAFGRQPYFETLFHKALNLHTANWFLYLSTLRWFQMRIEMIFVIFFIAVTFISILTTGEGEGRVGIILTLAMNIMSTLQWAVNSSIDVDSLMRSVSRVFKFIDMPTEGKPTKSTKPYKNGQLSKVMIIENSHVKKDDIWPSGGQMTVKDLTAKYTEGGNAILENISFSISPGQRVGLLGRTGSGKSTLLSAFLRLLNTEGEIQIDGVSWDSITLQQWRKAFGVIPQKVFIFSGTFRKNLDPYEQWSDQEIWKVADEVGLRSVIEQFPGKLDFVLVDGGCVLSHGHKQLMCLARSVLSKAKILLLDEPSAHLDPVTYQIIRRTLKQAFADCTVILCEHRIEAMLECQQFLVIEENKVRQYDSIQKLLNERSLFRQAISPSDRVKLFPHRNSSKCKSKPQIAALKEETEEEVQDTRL
T2 sequence (P13569 with tags, fused parts or gaps DEL508-508): as above

SMILES	% Activation [1] [%]	EC50 [1] [µM]	EC50 [2] [nM]	% Activity at 1 μM (AUC**) [2] [%]	% Activation [3] [%]	EC50 [3] [µM]	% Activity at 3 μM (AUC**) [2] [%]
CN(C)S(=O)(=O)NC(=O)c1cc(N2CCC(N3CCN(C4CC4)CC3)CC2)c2c(C3CCC3)nn(-c3ccccc3)c2n1 [Compound 549, 3-cyclobutyl-4-[4-(4-cyclopropylpiperazin-1-yl)piperidin-1-yl]-N-(dimethylsulfamoyl)-1-phenyl-1H-pyrazolo[3,4-b]pyridine-6-carboxamide]	276.9	0.233	243	373.3333	476.35	0.18	
CN1CCN(c2ccc(-c3cc(C(=O)NS(=O)(=O)N(C)C)nc4c3c(C3CCC3)nn4C3CCCCC3)cn2)CC1 [Compound 551, 3-cyclobutyl-1-cyclohexyl-N-(dimethylsulfamoyl)-4-[6-(4-methylpiperazin-1-yl)pyridin-3-yl]-1H-pyrazolo[3,4-b]pyridine-6-carboxamide]	197.8	0.763		239.0643	403.1	0.382	
O=C(NS(=O)(=O)N1CCOCC1)c1cc(N2CCC(N3CCN(C4CC4)CC3)CC2)c2c(C3CCC3)nn(-c3ccccc3)c2n1 [Compound 555, 3-cyclobutyl-4-[4-(4-cyclopropylpiperazin-1-yl)piperidin-1-yl]-N-(morpholine-4-sulfonyl)-1-phenyl-1H-pyrazolo[3,4-b]pyridine-6-carboxamide]	235.5	0.359	107	296.6667	432.55	0.104	
CNS(=O)(=O)NC(=O)c1cc(N2CCC(N3CCN(C4CC4)CC3)CC2)c2c(C3CCC3)nn(-c3ccccc3)c2n1 [Compound 558, 3-cyclobutyl-4-[4-(4-cyclopropylpiperazin-1-yl)piperidin-1-yl]-N-(methylsulfamoyl)-1-phenyl-1H-pyrazolo[3,4-b]pyridine-6-carboxamide]	399.1	0.532	4.74	221.9818	571.35	0.106	
CN(C)S(=O)(=O)NC(=O)c1cc(N2CCC(N3CCC(C#N)C3)CC2)c2c(C3CCC3)nn(-c3ccc(F)cc3)c2n1 (stereo not shown) [Compound 561, 4-[4-(3-cyanopyrrolidin-1-yl)piperidin-1-yl]-3-cyclobutyl-N-(dimethylsulfamoyl)-1-(4-fluorophenyl)-1H-pyrazolo[3,4-b]pyridine-6-carboxamide]	311.6	0.107		620	509.4	0.043	
CN(C)S(=O)(=O)NC(=O)c1cc(N2CCC(N3CCCC(C#N)C3)CC2)c2c(C3CCC3)nn(-c3ccc(F)cc3)c2n1 (stereo not shown) [Compound 562, 4-(3-cyano[1,4'-bipiperidin]-1'-yl)-3-cyclobutyl-N-(dimethylsulfamoyl)-1-(4-fluorophenyl)-1H-pyrazolo[3,4-b]pyridine-6-carboxamide]	341.3	0.0705		289.8854	589.55	0.0776	
COC1CN(C2CCN(c3cc(C(=O)NS(=O)(=O)N(C)C)nc4c3c(C3CCC3)nn4-c3ccc(F)cc3)CC2)C1 [Compound 570, 3-cyclobutyl-N-(dimethylsulfamoyl)-1-(4-fluorophenyl)-4-[4-(3-methoxyazetidin-1-yl)piperidin-1-yl]-1H-pyrazolo[3,4-b]pyridine-6-carboxamide]	235.8	0.496			412.9	0.208	377.5594
CN(C)S(=O)(=O)NC(=O)c1cc(N2CCC(N3CCOCC3)CC2)c2c(C3CCC3)nn(-c3ccnc(OC(F)F)c3)c2n1 [Compound 575, 3-cyclobutyl-1-[2-(difluoromethoxy)pyridin-4-yl]-N-(dimethylsulfamoyl)-4-[4-(morpholin-4-yl)piperidin-1-yl]-1H-pyrazolo[3,4-b]pyridine-6-carboxamide]	202.65	0.147		246.6667	361.3	0.0878	
O=C(NS(=O)(=O)N1CCC1)c1cc(N2CCC(N3CCOCC3)CC2)c2c(C3CCC3)nn(-c3ccc(F)cc3)c2n1 [Compound 576, N-(azetidine-1-sulfonyl)-3-cyclobutyl-1-(4-fluorophenyl)-4-[4-(morpholin-4-yl)piperidin-1-yl]-1H-pyrazolo[3,4-b]pyridine-6-carboxamide]	257.15	0.139			443.5	0.0547	225.798
O=C(NS(=O)(=O)NC1CCOCC1)c1cc(N2CCC(N3CCOCC3)CC2)c2c(C3CCC3)nn(-c3ccc(F)cc3)c2n1 [Compound 578, 3-cyclobutyl-1-(4-fluorophenyl)-4-[4-(morpholin-4-yl)piperidin-1-yl]-N-[(oxan-4-yl)sulfamoyl]-1H-pyrazolo[3,4-b]pyridine-6-carboxamide]	309.25	0.152		936.6667	462.3	0.108	
CN(C)S(=O)(=O)NC(=O)c1cc(N2CCC(N3CCN(C4CC4)CC3)CC2)c2c(C3CCC3)nn(-c3ccc(F)cc3)c2n1 [Compound 583, 3-cyclobutyl-4-[4-(4-cyclopropylpiperazin-1-yl)piperidin-1-yl]-N-(dimethylsulfamoyl)-1-(4-fluorophenyl)-1H-pyrazolo[3,4-b]pyridine-6-carboxamide]	269.7	0.178	51.3	613.3333	480.15	0.0476	
CN(C)S(=O)(=O)NC(=O)c1cc(N2CCC(CN3CCCC3)CC2)c2c(C3CCC3)nn(-c3ccc(F)cc3)c2n1 [Compound 589, 3-cyclobutyl-N-(dimethylsulfamoyl)-1-(4-fluorophenyl)-4-{4-[(pyrrolidin-1-yl)methyl]piperidin-1-yl}-1H-pyrazolo[3,4-b]pyridine-6-carboxamide]	193.6	0.2		236.6667	422.95	0.148	
CCOC(=O)N1CCN(C2CCN(c3cc(C(=O)NS(=O)(=O)N(C)C)nc4c3c(C3CCC3)nn4-c3ccc(F)cc3)CC2)CC1 [Compound 590, ethyl 4-(1-{3-cyclobutyl-6-[(dimethylsulfamoyl)carbamoyl]-1-(4-fluorophenyl)-1H-pyrazolo[3,4-b]pyridin-4-yl}piperidin-4-yl)piperazine-1-carboxylate]	290.3	0.0867			487.9	0.0314	220.4586
CN(C)S(=O)(=O)NC(=O)c1cc(C2CCN(C3CCC(F)(F)CC3)CC2)c2c(C3CCC3)nn(-c3ccc(F)cc3)c2n1 [Compound 594, 3-cyclobutyl-4-[1-(4,4-difluorocyclohexyl)piperidin-4-yl]-N-(dimethylsulfamoyl)-1-(4-fluorophenyl)-1H-pyrazolo[3,4-b]pyridine-6-carboxamide]	135.7	0.519			308.05	0.181	320
CC(C)Oc1nn(C2CCCCC2)c2nc(C(=O)NS(C)(=O)=O)cc(-c3ccc(CN4CCN(C5CC5)CC4)cc3)c12 [Compound 597, 1-cyclohexyl-4-{4-[(4-cyclopropylpiperazin-1-yl)methyl]phenyl}-N-(methanesulfonyl)-3-[(propan-2-yl)oxy]-1H-pyrazolo[3,4-b]pyridine-6-carboxamide]	214.3	0.13		263.3333	433.93	0.111	
